The subject of data set [1] is Plasmodium falciparum. Nature of the data set: NOVARTIS: Inhibition of Plasmodium falciparum 3D7 (drug-susceptible) proliferation in erythrocyte-based infection assay. The data set is classed as functional, organism-based. Particulars: Plasmodium falciparum, 3D7.
In data set [2] the test system is Plasmodium falciparum. The experiment in a line: NOVARTIS: Inhibition of Plasmodium falciparum W2 (drug-resistant) proliferation in erythrocyte-based infection assay. To be noted: Plasmodium falciparum, W2; read-out: EC50. The data set is classed as functional, organism-based.
Data set [3] is described as follows: NOVARTIS: Cytotoxicity against human hepatocellular carcinoma cell line (Huh7). The data set is classed as toxicity, cell-based, Huh-7. Particulars: Huh7 cells (hepatocellular carcinoma cell line).

With `CSc1nc2nc(C)c(Cc3cccc(C(F)(F)F)c3)c(C)n2n1`, the EC50 (as a rule, the concentration that produces a half-maximal response) came out at 270 nM in the data set with Plasmodium falciparum [1] and 224 nM with Plasmodium falciparum [2]. Moreover, the cytotoxic concentration (CC50) (in general, the concentration at which the toxic effect on the cells reaches its halfway point) in data set [3] was above 100000 nM.

As for `CN(C)CCCNc1ncnc2c1[nH]c1ccc(Cl)cc12`, the half-maximal effective concentration (EC50) came out at 26.1 nM with Plasmodium falciparum [1] and 43.7 nM with Plasmodium falciparum [2]. Half-maximal cytotoxicity in data set [3] (CC50) was put at 20700 nM.

Regarding `O=C(Nc1c(C(=O)Nc2cccc(Cl)c2)oc2ccccc12)c1cc(-c2ccccc2O)n[nH]1`, the EC50 in the data set with Plasmodium falciparum [1] amounted to 272 nM; with Plasmodium falciparum [2], 74.2 nM. Moreover, in data set [3], half-maximal cytotoxicity (CC50) was put at 35100 nM.

`CC(=NNC(=O)c1ccc(C)cc1)c1ccccn1`: the figures for the half-maximal effective concentration (EC50) in the data set on Plasmodium falciparum [1] and in the data set with Plasmodium falciparum [2] were 350 nM and 209 nM, respectively. The CC50 in data set [3] is above 100000 nM.

Take `c1ccc(CCc2nc3cccnc3n2C2CCN(C3CCN(Cc4ccccc4)CC3)CC2)cc1`: the EC50 with Plasmodium falciparum [1] stood at 153 nM; in the data set with Plasmodium falciparum [2], 175 nM. Also, half-maximal cytotoxicity in data set [3] (CC50) was put at 81400 nM.

Take `O=C(Nc1ccc(-c2ccc(Cl)cc2)cc1)c1cccs1`: the EC50 amounted to 285 nM in the data set with Plasmodium falciparum [1] and 225 nM in the data set on Plasmodium falciparum [2]. In data set [3], the CC50 is above 100000 nM.

For the molecule `COc1cccc(-c2ccc(O)c(CN3CCC(Cc4ccccc4)CC3)c2)n1`, the EC50 was determined as 306 nM in the data set with Plasmodium falciparum [1] and 86.1 nM with Plasmodium falciparum [2]. In data set [3], the CC50 stood at 38400 nM.

For the molecule `O=C(Cc1ccsc1)N1CCOc2c(cc(-c3csc4ccccc34)cc2OCCc2ccccn2)C1`, the 50% effective concentration (EC50) in the data set on Plasmodium falciparum [1] was determined as 379 nM; with Plasmodium falciparum [2], 223 nM. Also, the CC50 in data set [3] was above 100000 nM.

In the case of `COc1ccc2nc3cc(Cl)ccc3c(NCCCN(CCCN)CCCCN)c2c1`, the figures for the EC50 in the data set with Plasmodium falciparum [1] and in the data set with Plasmodium falciparum [2] were 78.6 nM and 22.3 nM, respectively. The molecule also came in with a CC50 in data set [3] above 10000 nM.

Turning to `CC1CNC(c2ccc(NC(=O)c3ccc(C(=O)Nc4ccc(C5=NC(C)CN5)cc4)c(N)c3)cc2)=N1` (stereo unspecified), the EC50 in the data set on Plasmodium falciparum [1] was 47 nM; in the data set with Plasmodium falciparum [2] it was 22.2 nM. In data set [3], this molecule came in with a CC50 above 10000 nM.

For `Brc1ccc(C=Cc2cc[n+](Cc3ccccc3)cc2)cc1`, the EC50 in the data set with Plasmodium falciparum [1] was 139 nM; in the data set with Plasmodium falciparum [2], 103 nM. Moreover, the CC50 in data set [3] worked out at 47300 nM.

`COc1cc(-c2nc(-c3ccc(C)c(C)c3)c(-c3ccc(C)c(C)c3)[nH]2)cc(OC)c1O`: the figures for the EC50 in the data set with Plasmodium falciparum [1] and in the data set with Plasmodium falciparum [2] were 93 nM and 132 nM, respectively. For the same molecule, the 50% cytotoxic concentration (CC50) in data set [3] is 61200 nM.

For `C=CC1CN2CCC1CC2C(OC(C)=O)c1ccnc2ccc(OC)cc12` (stereo unspecified), the EC50 came to 240 nM with Plasmodium falciparum [1] and 213 nM in the data set with Plasmodium falciparum [2]. In data set [3], this molecule returned a CC50 above 100000 nM.

On to `CCc1nc2nc(C)cc(Nc3ccc4c(c3)OCCO4)n2n1`, for which the values for the EC50 in the data set on Plasmodium falciparum [1] and in the data set with Plasmodium falciparum [2] were 360 nM and 219 nM, respectively. In data set [3], this molecule yielded a cytotoxic concentration (CC50) above 100000 nM.

As for `COc1cccc(C(NC(=O)c2ccccc2)c2ccc3cccnc3c2O)c1` (stereo unspecified), the EC50 in the data set with Plasmodium falciparum [1] came to 134 nM; in the data set with Plasmodium falciparum [2], 216 nM. In data set [3], the CC50 was above 100000 nM.

Turning to `Cc1ccn2c(NC(C)(C)CC(C)(C)C)c(-c3ccccc3OC(=O)Cc3ccccc3)nc2c1`, the EC50 in the data set on Plasmodium falciparum [1] was 926 nM; in the data set on Plasmodium falciparum [2], 21.6 nM. Further, the CC50 in data set [3] is above 10000 nM.

Take `COc1cc2c(cc1OC)C1=NC(=O)C(C(C)C)N1C(SCc1csc(Cl)n1)=N2` (stereo unspecified): the EC50 in the data set with Plasmodium falciparum [1] was above 1420 nM; with Plasmodium falciparum [2], 31.6 nM. This molecule yielded a CC50 in data set [3] of 14300 nM.

For `O=C(NC1CC1)c1ccc(OC2CCN(CC3CCCCC3)CC2)c(Cl)c1`, the EC50 is 119 nM with Plasmodium falciparum [1] and 50.3 nM with Plasmodium falciparum [2]. This molecule also registered a CC50 in data set [3] of 22600 nM.

As for `CCCc1nc2ccc(NC(=O)c3ccccc3F)cc2c(=O)n1Cc1ccc(-c2ccccc2)cc1`, the EC50 came to 1080 nM with Plasmodium falciparum [1] and 217 nM in the data set on Plasmodium falciparum [2]. This molecule also registered a CC50 in data set [3] above 100000 nM.

In the case of `CC(C)COc1nc(-c2ccccc2)n(S(=O)(=O)c2cccc3cccnc23)n1`, the concentration for a half-maximal effect (EC50) with Plasmodium falciparum [1] was found to be 42.3 nM; in the data set with Plasmodium falciparum [2], 4.56 nM. Also, the CC50 in data set [3] is above 2160 nM.

For the molecule `COc1ccc2c(c1OC)C(=O)N1c3ccccc3N=C(c3ccc(I)cc3)CC21` (stereo unspecified), the EC50 with Plasmodium falciparum [1] is 416 nM; in the data set with Plasmodium falciparum [2], 223 nM. In data set [3], this molecule showed a CC50 above 100000 nM.

Consider `Cc1ccc(N(C)C(=O)CCNS(=O)(=O)c2cc(Br)cnc2N)cc1`, for which the figures for the EC50 in the data set with Plasmodium falciparum [1] and with Plasmodium falciparum [2] were 1920 nM and 224 nM, respectively. Also, the CC50 in data set [3] is above 100000 nM.
